From US7700584B2 (Hangzhou Minsheng Pharmaceuticals Co., Ltd., priority 2004, dated 2010)
Values after ≈ are worked out from the molar mass of the structure shown. Where a name gives a salt, the structure may show the parent alone. Read-outs that look alike come from different tables or passages of the source.

Experiments:
[1] = test system: Bel-7402 human hepatic carcinoma; test: In vitro anti-tumor IC50 (MTT), Bel-7402; type: cell-based; conditions: Homo sapiens, Bel-7402, Table 4; read-out: IC50 (ug/ml) against tumor cell lines, Bel-7402
Protocol: (§1) (1) Single cell suspension was seeded into 96-well plates (the cells was diluted in the PRMI-1640 minimum medium to 3×10^4 cells/ml, […] diluted cells/well). […] The experiments were performed in quadruplicate.
(§2) (2) The medium was removed. Solutions of the anti-tumor agents (50 compounds) were prepared in a freshly prepared medium at serial concentrations. […] of the solution was added into each well. Incubation was continued for 48 hours.
(§3) (3) 20 ug of 2 mg/ml MTT was added into each well, and incubated for 4 hours.
(§4) (4) The medium was removed from the well. The microplates were swiftly turned down to throw-off the medium. […] of DMSO was added into each well, and vortexed at room temperature for 10 minutes.
(§5) (5) OD value (λ=570 nm) was measured with an Enzyme-Linked Detector.
(§6) (6) The graph of cell vitality was plotted, and IC50 was calculated.

[2] = test system: SMMC-7721 human hepatic carcinoma; test: In vitro anti-tumor IC50 (MTT), SMMC-7721; type: cell-based; conditions: Homo sapiens, SMMC-7721, Table 4; read-out: IC50 (ug/ml) against tumor cell lines, SMMC-7721
Protocol: as §1, §2, §3, §4, §5, §6

[3] = test system: eight selected tumor cell lines; test: In vitro anti-tumor IC50, summary over the selected tumor cell lines; type: cell-based; conditions: for activity to Hela, U-937 and HL-60 cell lines (in words): Hela and U-937, also U-937 and HL-60 cell lines
Protocol: as §1, §2, §3, §4, §5, §6

[4] = test system: LLC mouse Lewis lung carcinoma; test: In vitro anti-tumor IC50 (MTT), LLC; type: cell-based; conditions: Mus musculus, Lewis lung carcinoma, Table 4; read-out: IC50 (ug/ml) against tumor cell lines, LLC
Protocol: as §1, §2, §3, §4, §5, §6

[5] = test system: A-549 human lung adenocarcinoma; test: In vitro anti-tumor IC50 (MTT), A-549; type: cell-based; conditions: Homo sapiens, A549, Table 4; read-out: IC50 (ug/ml) against tumor cell lines, A-549
Protocol: as §1, §2, §3, §4, §5, §6

[6] = test system: oral membrane herpes virus (VSV); type: cell-based
[7] = test system: mouse grafted sarcoma S-180; test: Activity against mouse grafted sarcoma S-180; type: in vivo, Kunming mice; conditions: for Tumor weight: X ± SD, n = 10; for inhibitory effect against mouse sarcoma S-180 (in words): three different concentrations (40, 20, 10 mg/kg), i.v.
Protocol: (1) Experimental animals: Kunming mice weighting 18-22 g;
(2) 100 mg/ml solutions of the 3 compounds were prepared, respectively, in water for injection (1% surface surfactant was added into the solution of Compound 6). 5-FU and camptothecine, 30 mg/kg and 1 mg/kg, respectively, were used as positive controls;
3. Route of Administration: Intravenous Injection.
(§7) The experiments were performed according to “Guideline for New Drugs (Western medicines) in Pre-clinical Stages” issued by Bureau of Drug Policy & Administration of the People's Republic of China, and the relevant methods in “Methodology of Pharmaceutical Experiments”, Xu Shuyun et al. ed. 120 male Kunming mice weighting […] were allowed to grow 3 days. No abnormality was observed. The mice were routinely inoculated in oxter with mouse sarcoma S-180, and weighted 4 hrs. after inoculation. The mice were randomly divided into 12 groups, 10 mice/group. Group 1 was given 0.3 ml of physiological saline as negative control; Group 2 was given 5-FU as positive control, 0.6 mg/mouse; Group 3 was given hydroxycamptothecine as positive control, 0.02 mg/mouse. Groups 4, 5 and 6 were injected with 10% Compound 6, 0.4 ml/mouse, 0.2 ml/mouse, and 0.1 ml/mouse, respectively. Groups 7, 8 and 9 were injected with 10% Compound 8, 0.4 ml/mouse, 0.2 ml/mouse, and 0.1 ml/mouse, respectively. Groups 10, 11, and 12 were injected with 10% Compound 20, 0.4 ml/mouse, 0.2 ml/mouse, and 0.1 ml/mouse, respectively. The tested compounds were administered on the next day after inoculation, once a day on alternate days, 6 doses totally administered. On the next day after the end dose, the mice were weighed and sacrificed. After the tumor was excised, body weight and tumor weight were recorded. The tumor inhibition rate was calculated based on the following formula: [(average tumor weight of the control groups−average tumor weight of the experimental groups)/average tumor weight of the control groups]×100%. The data was processed statistically. The above experiments were repeated three times.

[8] = Solubility in water (observation); type: physicochemical
[9] = test system: influenza A virus (Jifang 90-15); test: microbe, parasite or virus in culture; type: cell-based
[10] = test system: mouse grafted liver cancer H22; test: Activity against mouse grafted liver cancer H22; type: in vivo, Kunming mice; conditions: for Tumor weight: X ± SD, n = 10; for inhibitory effect against mouse grafted liver cancer H22 (in words): three different concentrations (40, 20, 10 mg/kg), i.v.
Protocol: as §7
The experiments were identical with the experiments for activity against mouse grafted sarcoma S-180, except that the cell line inoculated was liver cancer H22. The experiments were repeated three times.

[11] = S-180, first experiment, 10 mg/kg i.v., 6 doses
[12] = S-180, first experiment, 20 mg/kg i.v., 6 doses
[13] = S-180, first experiment, 40 mg/kg i.v., 6 doses
[14] = S-180, second experiment, 10 mg/kg i.v., 6 doses
[15] = S-180, second experiment, 20 mg/kg i.v., 6 doses
[16] = S-180, second experiment, 40 mg/kg i.v., 6 doses
[17] = H22, first experiment, 10 mg/kg i.v., 6 doses
[18] = H22, first experiment, 20 mg/kg i.v., 6 doses
[19] = H22, first experiment, 40 mg/kg i.v., 6 doses
[20] = H22, second experiment, 10 mg/kg
[21] = H22, second experiment, 20 mg/kg
[22] = H22, second experiment, 40 mg/kg
[23] = H22, third experiment, 10 mg/kg
[24] = H22, third experiment, 20 mg/kg
[25] = H22, third experiment, 40 mg/kg

With `CC(C)C1CC23OC1(O)C/C(=C\Nc1ccc(O)cc1)C2CCC3C` (stereo not shown) [Compound 5, Curcumol p-hydroxy aniline] the IC50 [1] was 0.9 µg/mL (≈ 2.62 µM), the IC50 [2] was 4.3 µg/mL (≈ 12.5 µM) and the “inhibitory effect to all the eight selected tumor cell lines (in words)” value ([3]; all eight cell lines) was “strong inhibitory effect”. The IC50 [4] was 3.6 µg/mL (≈ 10.5 µM) and the IC50 [5] was 2 µg/mL (≈ 5.82 µM).
For `C=C1CC2(OS(=O)(=O)[O-])OC3(CC2C(C)C)C(C)CCC13.[Na+]` (stereo not shown) [Compound 21, Curcumol sodium sulfonate], the “activity against VSV (in words)” value ([6]; 200 μg/ml) was “had the activity against VSV”, the “activity against VSV (in words)” value ([6]; first round of the primary screening, 13 samples) was “some activities against VSV” and the “Average weight (g)-after administration” value [7, 11] was 22.6 g. For the same molecule, the “Tumor weight” value [7, 11] was 2.6 ± 0.23 g, the “Average weight (g)-after administration” value [7, 12] was 22.5 g and the “Inhibition rate (%)” value [7, 12] was 4%. The “Tumor weight” value [7, 12] was 2.4 ± 0.43 g, the “Average weight (g)-after administration” value [7, 13] was 23.1 g and the “Inhibition rate (%)” value [7, 13] was 8%. For the same molecule, the “Tumor weight” value [7, 13] was 2.3 ± 0.31 g, the “Average weight(g)-after administration” value [7, 14] was 22.6 g and the “Inhibition rate (%)” value [7, 14] was 3.8%. The “Tumor weight” value [7, 14] was 2.5 ± 0.42 g, the “Average weight(g)-after administration” value [7, 15] was 22.2 g and the “Inhibition rate (%)” value [7, 15] was 3.8%. The “Tumor weight” value [7, 15] was 2.5 ± 0.38 g, the “Average weight(g)-after administration” value [7, 16] was 23.1 g and the “Inhibition rate (%)” value [7, 16] was 7.6%. For the same molecule, the “Tumor weight” value [7, 16] was 2.4 ± 0.36 g, the “inhibitory effect against mouse sarcoma S-180 (in words)” value [7] was “little inhibitory effect” and the “solubility in water (in words)” value [8] was “soluble in water”. For the same molecule, the IC50 ([9]; Influenza A virus, CPE in MDCK cells) was 47.7 µg/mL, the “SI, influenza A virus” value ([9]; SI = TC50/IC50) was 20.96 and the “Average weight(g)-after administration” value [10, 17] was 22.1 g. For the same molecule, the “Tumor weight” value [10, 17] was 3.00 ± 0.29 g, the “Average weight(g)-after administration” value [10, 18] was 22.0 g and the “Tumor weight” value [10, 18] was 3.03 ± 0.41 g. For the same molecule, the “Average weight(g)-after administration” value [10, 19] was 22.1 g, the “Inhibition rate (%)” value [10, 19] was 4.0% and the “Tumor weight” value [10, 19] was 2.9 ± 0.31 g. For the same molecule, the “Average weight(g)-after administration” value [10, 20] was 22.1 g, the “Tumor weight” value [10, 20] was 3.03 ± 0.29 g and the “Average weight(g)-after administration” value [10, 21] was 22.0 g. For the same molecule, the “Tumor weight” value [10, 21] was 3.02 ± 0.41 g, the “Average weight(g)-after administration” value [10, 22] was 22.1 g and the “Inhibition rate (%)” value [10, 22] was 1.0%. The “Tumor weight” value [10, 22] was 3.0 ± 0.31 g, the “Average weight (g)-after administration” value [10, 23] was 22.1 g and the “Tumor weight” value [10, 23] was 3.02 ± 0.29 g. The “Average weight (g)-after administration” value [10, 24] was 21.0 g, the “Tumor weight” value [10, 24] was 3.01 ± 0.41 g and the “Average weight (g)-after administration” value [10, 25] was 20.1 g. For the same molecule, the “Inhibition rate (%)” value [10, 25] was 1.0%, the “Tumor weight” value [10, 25] was 3.0 ± 0.31 g and the “inhibitory effect against mouse grafted liver cancer H22 (in words)” value [10] was “little inhibitory effect”.
For `CC(C)C1CC23OC1(O)CC(=CN1CCNCC1)C2CCC3C` (stereo not shown) [Compound 7, Curcumol piperazine], the “activity to Hela, U-937 and HL-60 cell lines (in words)” value [3] was “excellent activity”.
In the case of `CC(C)C1CC23OC1(O)CC(=CN1CCNCC1)C2CCC3C` (stereo not shown) [Compound 8, Curcumol piperazine hydrochloride], the “activity to Hela, U-937 and HL-60 cell lines (in words)” value [3] is reported as “excellent activity”, the “Inhibition rate (%)” value [7, 11] is reported as 16% and the “Tumor weight” value [7, 11] is reported as 2.1 ± 0.42 g. The “Inhibition rate (%)” value [7, 12] was 20%, the “Tumor weight” value [7, 12] was 2.0 ± 0.40 g and the “Inhibition rate (%)” value [7, 13] was 48%. For the same molecule, the “Tumor weight” value [7, 13] was 1.3 ± 0.24 g, the “Inhibition rate (%)” value [7, 14] was 15.4% and the “Tumor weight” value [7, 14] was 2.2 ± 0.31 g. For the same molecule, the “Inhibition rate (%)” value [7, 15] was 15.4%, the “Tumor weight” value [7, 15] was 2.2 ± 0.29 g and the “Inhibition rate (%)” value [7, 16] was 46.1%. For the same molecule, the “Tumor weight” value [7, 16] was 1.4 ± 0.37 g, the “Average weight (g)-after administration” value ([7]; mouse, in vivo, iv, 10 mg/kg) was 22.5 g and the “Average weight(g)-after administration” value ([7]; mouse, in vivo, iv, 10 mg/kg) was 23.5 g. For the same molecule, the “Average weight (g)-after administration” value ([7]; mouse, in vivo, iv, 20 mg/kg) was 21.8 g, the “Average weight(g)-after administration” value ([7]; mouse, in vivo, iv, 20 mg/kg) was 21.8 g and the “Average weight (g)-after administration” value ([7]; mouse, in vivo, iv, 40 mg/kg) was 23.0 g. For the same molecule, the “Average weight(g)-after administration” value ([7]; mouse, in vivo, iv, 40 mg/kg) was 23.0 g, the “inhibitory effect against mouse sarcoma S-180 (in words)” value [7] was “had the inhibitory effect only when the concentration reached 40 mg/kg” and the “Tumor weight” value [10, 17] was 3.02 ± 0.33 g. The “Inhibition rate (%)” value [10, 18] was 4.0%, the “Tumor weight” value [10, 18] was 2.9 ± 0.39 g and the “Inhibition rate (%)” value [10, 19] was 37.1%. For the same molecule, the “Tumor weight” value [10, 19] was 1.9 ± 0.36 g, the “Tumor weight” value [10, 20] was 3.10 ± 0.33 g and the “Inhibition rate (%)” value [10, 21] was 4.0%. The “Tumor weight” value [10, 21] was 2.9 ± 0.39 g, the “Inhibition rate (%)” value [10, 22] was 36.1% and the “Tumor weight” value [10, 22] was 1.93 ± 0.36 g. For the same molecule, the “Inhibition rate (%)” value [10, 23] was 2.3%, the “Tumor weight” value [10, 23] was 2.95 ± 0.33 g and the “Inhibition rate (%)” value [10, 24] was 7.3%. For the same molecule, the “Tumor weight” value [10, 24] was 2.8 ± 0.39 g, the “Inhibition rate (%)” value [10, 25] was 33.4% and the “Tumor weight” value [10, 25] was 2.01 ± 0.36 g. For the same molecule, the “Average weight (g)-after administration” value ([10]; mouse, in vivo, 10 mg/kg) was 20.3 g, the “Average weight(g)-after administration” value ([10]; mouse, in vivo, 10 mg/kg) was 22.3 g and the “Average weight (g)-after administration” value ([10]; mouse, in vivo, 20 mg/kg) was 20.9 g. The “Average weight(g)-after administration” value ([10]; mouse, in vivo, 20 mg/kg) was 21.9 g, the “Average weight (g)-after administration” value ([10]; mouse, in vivo, 40 mg/kg) was 21.9 g and the “Average weight(g)-after administration” value ([10]; mouse, in vivo, 40 mg/kg) was 21.4 g. For the same molecule, the “Average weight(g)-after administration” value ([10]; mouse, in vivo, iv, 10 mg/kg) was 22.3 g, the “Average weight(g)-after administration” value ([10]; mouse, in vivo, iv, 20 mg/kg) was 21.9 g and the “Average weight(g)-after administration” value ([10]; mouse, in vivo, iv, 40 mg/kg) was 22.4 g. The “inhibitory effect against mouse grafted liver cancer H22 (in words)” value [10] was “some inhibitory effect only when the concentration reached 40 mg/kg”.
